Source: the supplement of paper PMC12463676, “Small-molecule dissolution of stress granules by redox modulation benefits ALS models” (Nature Chemical Biology, 2025)

What was measured:
[1] = compound: NC(=O)CCCCC1CCSS1 [lipoamide]; assay: thermal stability z-score vs DMSO; higher = more thermally stabilized by treatment; conditions: HeLa, lipoamide concentration 100 µM
Description: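 Cellular thermal proteome profiling in HeLa cells. Cells were treated with 100 µM lipoamide for 1 h, with or without 1 mM arsenate for a further 1 h, then heated to ten temperatures (37-66.3 °C), and soluble protein was quantified by TMT mass spectrometry relative to 0.1% DMSO controls. The thermal stability score (sum of log2 fold changes minus the abundance score) was transformed to a z-score; mean of n = 3 experiments.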

[2] = compound: O=[As]([O-])(O)O.[K+] [potassium arsenate]; assay: as above; conditions: HeLa; arsenate concentration 1 mM
Description: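 Cellular thermal proteome profiling in HeLa cells treated with 1 mM arsenate for 1 h (DMSO pretreatment), heated to ten temperatures (37-66.3 °C). Soluble protein was quantified by TMT mass spectrometry relative to DMSO controls; the thermal stability score was transformed to a z-score; mean of n = 3 experiments.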

[3] = arsenate co-treatment: 1 mM arsenate 1 h
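Further: each temperature applied for 3 min, abundance score taken as mean log2 fold change at the two lowest temperatures, z-score obtained by mean subtraction and division by SD.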

Sequence of UniProt Q9Y3C0 (Q9Y3C0 whole entry): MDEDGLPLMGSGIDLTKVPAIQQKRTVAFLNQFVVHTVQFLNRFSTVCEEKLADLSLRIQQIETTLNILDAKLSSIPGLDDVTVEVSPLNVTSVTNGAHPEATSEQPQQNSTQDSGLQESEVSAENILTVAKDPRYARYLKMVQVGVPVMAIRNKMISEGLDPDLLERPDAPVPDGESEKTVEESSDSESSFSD
Sequence of UniProt O15534 (O15534 whole entry): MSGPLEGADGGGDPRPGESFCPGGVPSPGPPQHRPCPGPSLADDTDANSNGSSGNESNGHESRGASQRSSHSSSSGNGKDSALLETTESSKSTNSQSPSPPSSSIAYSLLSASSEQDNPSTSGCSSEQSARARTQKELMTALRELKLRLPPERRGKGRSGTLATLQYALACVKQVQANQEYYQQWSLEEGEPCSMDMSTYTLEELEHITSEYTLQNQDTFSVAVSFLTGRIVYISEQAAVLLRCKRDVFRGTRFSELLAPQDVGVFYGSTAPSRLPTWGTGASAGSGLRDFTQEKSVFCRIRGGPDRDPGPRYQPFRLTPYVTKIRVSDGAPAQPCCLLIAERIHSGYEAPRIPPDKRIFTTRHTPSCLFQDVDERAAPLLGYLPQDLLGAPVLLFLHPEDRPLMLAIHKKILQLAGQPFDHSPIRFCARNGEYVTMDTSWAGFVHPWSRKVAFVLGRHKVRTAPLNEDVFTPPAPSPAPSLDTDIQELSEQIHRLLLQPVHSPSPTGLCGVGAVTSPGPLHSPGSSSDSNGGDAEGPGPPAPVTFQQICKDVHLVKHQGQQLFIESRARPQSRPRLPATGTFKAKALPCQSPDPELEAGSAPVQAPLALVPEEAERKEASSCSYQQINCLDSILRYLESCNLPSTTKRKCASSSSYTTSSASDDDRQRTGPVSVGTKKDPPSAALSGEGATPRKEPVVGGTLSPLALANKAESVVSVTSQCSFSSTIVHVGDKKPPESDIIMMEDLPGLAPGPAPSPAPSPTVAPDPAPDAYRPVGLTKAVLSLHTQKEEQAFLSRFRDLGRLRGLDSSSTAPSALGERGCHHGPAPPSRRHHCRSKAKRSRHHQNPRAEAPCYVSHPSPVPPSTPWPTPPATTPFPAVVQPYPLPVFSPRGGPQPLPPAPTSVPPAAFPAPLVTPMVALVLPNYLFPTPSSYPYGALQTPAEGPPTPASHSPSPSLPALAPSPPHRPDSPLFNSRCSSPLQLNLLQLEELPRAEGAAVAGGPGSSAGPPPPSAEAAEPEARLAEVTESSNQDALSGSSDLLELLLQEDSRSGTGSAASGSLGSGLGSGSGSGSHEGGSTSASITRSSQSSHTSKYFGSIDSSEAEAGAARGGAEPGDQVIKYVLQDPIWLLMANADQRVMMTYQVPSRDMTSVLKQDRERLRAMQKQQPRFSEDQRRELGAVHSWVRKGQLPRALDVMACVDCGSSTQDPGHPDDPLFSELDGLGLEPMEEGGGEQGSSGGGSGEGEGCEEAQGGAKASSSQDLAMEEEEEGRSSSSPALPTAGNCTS
Sequence of UniProt Q5H8A4 (Q5H8A4 whole entry): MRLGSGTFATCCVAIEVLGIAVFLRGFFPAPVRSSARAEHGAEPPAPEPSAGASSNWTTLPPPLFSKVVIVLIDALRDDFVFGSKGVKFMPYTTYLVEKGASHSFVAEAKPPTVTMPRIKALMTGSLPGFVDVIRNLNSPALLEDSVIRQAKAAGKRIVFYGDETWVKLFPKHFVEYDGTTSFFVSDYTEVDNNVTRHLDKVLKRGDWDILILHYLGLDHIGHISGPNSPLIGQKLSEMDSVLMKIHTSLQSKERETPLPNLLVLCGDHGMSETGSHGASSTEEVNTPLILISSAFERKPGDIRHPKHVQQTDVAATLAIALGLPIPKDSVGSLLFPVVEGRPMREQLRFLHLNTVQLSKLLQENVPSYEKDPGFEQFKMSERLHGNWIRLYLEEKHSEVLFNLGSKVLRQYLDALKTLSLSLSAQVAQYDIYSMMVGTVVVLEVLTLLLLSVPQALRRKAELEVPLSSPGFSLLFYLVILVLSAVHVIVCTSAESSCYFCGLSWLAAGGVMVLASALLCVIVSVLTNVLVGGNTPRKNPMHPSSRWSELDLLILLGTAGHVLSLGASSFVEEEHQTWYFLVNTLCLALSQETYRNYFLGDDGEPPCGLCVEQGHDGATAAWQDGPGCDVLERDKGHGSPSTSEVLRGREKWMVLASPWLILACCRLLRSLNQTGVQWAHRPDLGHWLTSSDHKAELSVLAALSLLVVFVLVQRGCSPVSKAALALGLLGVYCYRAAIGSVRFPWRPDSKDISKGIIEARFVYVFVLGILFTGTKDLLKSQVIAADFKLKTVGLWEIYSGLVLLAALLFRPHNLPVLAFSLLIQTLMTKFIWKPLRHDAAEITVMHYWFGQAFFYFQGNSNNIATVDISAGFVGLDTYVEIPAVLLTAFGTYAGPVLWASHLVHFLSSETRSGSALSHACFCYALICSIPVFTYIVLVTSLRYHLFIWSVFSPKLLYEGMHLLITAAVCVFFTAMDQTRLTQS
Sequence of UniProt Q9NWT6 (Q9NWT6 whole entry): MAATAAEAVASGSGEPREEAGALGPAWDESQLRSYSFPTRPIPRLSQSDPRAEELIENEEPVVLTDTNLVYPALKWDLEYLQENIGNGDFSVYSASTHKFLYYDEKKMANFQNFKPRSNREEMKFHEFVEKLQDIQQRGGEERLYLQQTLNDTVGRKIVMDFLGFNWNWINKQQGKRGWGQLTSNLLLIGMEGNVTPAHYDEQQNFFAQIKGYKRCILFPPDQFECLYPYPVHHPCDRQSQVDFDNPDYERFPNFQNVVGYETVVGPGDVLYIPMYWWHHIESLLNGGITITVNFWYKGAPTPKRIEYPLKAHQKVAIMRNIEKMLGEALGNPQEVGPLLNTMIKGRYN
Sequence of UniProt O95819 (O95819 whole entry, looked up): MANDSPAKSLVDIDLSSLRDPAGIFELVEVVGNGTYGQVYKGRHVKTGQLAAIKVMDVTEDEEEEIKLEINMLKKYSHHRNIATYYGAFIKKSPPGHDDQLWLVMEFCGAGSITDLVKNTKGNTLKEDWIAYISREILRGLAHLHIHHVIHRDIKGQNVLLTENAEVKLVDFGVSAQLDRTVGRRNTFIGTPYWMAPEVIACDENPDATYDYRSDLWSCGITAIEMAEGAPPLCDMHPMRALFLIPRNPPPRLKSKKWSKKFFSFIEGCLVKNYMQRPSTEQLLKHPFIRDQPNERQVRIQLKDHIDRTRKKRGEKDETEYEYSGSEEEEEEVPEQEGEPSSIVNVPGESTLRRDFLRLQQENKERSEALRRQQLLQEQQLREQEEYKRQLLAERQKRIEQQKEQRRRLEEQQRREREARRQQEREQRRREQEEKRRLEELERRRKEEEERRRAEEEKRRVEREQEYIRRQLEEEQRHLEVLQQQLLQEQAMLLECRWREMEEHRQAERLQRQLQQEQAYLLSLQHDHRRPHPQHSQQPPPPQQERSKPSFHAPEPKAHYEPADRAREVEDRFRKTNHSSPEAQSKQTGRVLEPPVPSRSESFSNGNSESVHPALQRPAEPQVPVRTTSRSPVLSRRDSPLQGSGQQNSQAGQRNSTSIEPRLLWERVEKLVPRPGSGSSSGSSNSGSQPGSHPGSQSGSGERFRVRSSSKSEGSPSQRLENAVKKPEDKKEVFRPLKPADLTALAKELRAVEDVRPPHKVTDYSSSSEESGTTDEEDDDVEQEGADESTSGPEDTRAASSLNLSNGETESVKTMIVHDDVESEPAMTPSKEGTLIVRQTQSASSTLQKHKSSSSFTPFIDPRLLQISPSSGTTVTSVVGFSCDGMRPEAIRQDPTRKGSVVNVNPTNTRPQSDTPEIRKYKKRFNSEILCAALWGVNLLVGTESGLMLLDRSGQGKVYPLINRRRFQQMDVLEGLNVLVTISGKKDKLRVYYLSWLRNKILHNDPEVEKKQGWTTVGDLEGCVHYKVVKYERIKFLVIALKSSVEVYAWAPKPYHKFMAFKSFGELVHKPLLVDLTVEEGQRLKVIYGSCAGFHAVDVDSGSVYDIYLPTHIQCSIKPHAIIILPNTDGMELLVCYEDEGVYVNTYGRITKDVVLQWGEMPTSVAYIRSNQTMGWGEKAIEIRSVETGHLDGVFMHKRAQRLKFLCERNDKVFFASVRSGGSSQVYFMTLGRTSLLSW
Sequence of UniProt O00746 (O00746 whole entry): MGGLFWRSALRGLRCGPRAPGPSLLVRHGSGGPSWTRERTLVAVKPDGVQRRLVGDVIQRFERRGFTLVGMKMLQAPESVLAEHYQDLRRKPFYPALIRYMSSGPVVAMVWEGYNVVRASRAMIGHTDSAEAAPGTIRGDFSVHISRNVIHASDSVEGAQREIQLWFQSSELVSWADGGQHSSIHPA
Sequence of UniProt Q7L5Y9 (Q7L5Y9 whole entry): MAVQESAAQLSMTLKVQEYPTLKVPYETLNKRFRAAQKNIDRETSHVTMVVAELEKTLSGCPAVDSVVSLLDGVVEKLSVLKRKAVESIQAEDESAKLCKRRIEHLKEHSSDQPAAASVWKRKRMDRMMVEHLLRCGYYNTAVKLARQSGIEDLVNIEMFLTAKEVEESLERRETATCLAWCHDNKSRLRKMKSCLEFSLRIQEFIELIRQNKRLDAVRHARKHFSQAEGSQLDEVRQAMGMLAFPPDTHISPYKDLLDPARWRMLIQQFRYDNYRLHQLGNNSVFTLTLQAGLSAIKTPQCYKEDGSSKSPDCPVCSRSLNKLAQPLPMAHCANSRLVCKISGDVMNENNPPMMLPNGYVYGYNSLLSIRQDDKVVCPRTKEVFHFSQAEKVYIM
Sequence of UniProt Q969G6 (Q969G6 whole entry): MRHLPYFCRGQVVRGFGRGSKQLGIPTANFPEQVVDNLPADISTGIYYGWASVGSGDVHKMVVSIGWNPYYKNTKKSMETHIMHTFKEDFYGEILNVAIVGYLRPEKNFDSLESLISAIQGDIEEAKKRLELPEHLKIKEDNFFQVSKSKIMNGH
Sequence of UniProt Q9NRV9 (Q9NRV9 whole entry): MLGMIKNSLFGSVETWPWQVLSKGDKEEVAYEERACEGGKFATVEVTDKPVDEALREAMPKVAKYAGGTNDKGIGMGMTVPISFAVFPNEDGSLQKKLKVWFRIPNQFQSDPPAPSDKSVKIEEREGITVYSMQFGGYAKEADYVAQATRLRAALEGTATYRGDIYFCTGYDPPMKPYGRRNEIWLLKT

| Target | thermal stability z-score [1, 3] | thermal stability z-score ([1]; arsenate co-treatment: none) | thermal stability z-score [2] |
| --- | --- | --- | --- |
| HIF1AN (UniProt Q9NWT6) | -0.806 | -0.553 | 0.463 |
| NARS (UniProt O43776) | -0.596 | -0.292 | 1.17 |
| MFSD12 (UniProt Q6NUT3) | -0.485 | -1.79 | 1.14 |
| TRIM27 (UniProt P14373) | 0.641 | -0.0794 | -0.874 |
| SNAPC3 (UniProt Q92966) | -0.219 | -0.258 | -0.108 |
| PPP1R21 (UniProt Q6ZMI0) | -0.328 | -0.0718 | -0.839 |
| MMS19 (UniProt Q96T76) | -0.784 | -1.16 | -0.949 |
| ALG13 (UniProt Q9NP73) | 0.336 | 0.571 | -0.739 |
| NME4 (UniProt O00746) | -1.03 | -1.25 | -1.86 |
| H2AFX (UniProt P16104) | -0.033 | -0.0884 | -0.415 |
| ADA (UniProt P00813) | 0.792 | 0.403 | -0.000857 |
| CTR9 (UniProt Q6PD62) | 0.156 | 0.203 | 0.243 |
| RTN4RL2 (UniProt Q86UN3) | -1.87 | -1.25 | 0.417 |
| ETF1 (UniProt P62495) | 0.635 | 0.513 | -0.148 |
| DYNLRB1 (UniProt Q9NP97) | -0.37 | 0.743 | 0.237 |
| NCKAP5L (UniProt Q9HCH0) | -0.000592 | 0.244 | 0.264 |
| MAP4K4 (UniProt O95819) | -0.599 | -0.0959 | 0.303 |
| ETFA (UniProt P13804) | -0.622 | 0.0342 | -1.17 |
| NO66 (UniProt Q9H6W3) | 0.635 | 0.483 | 0.842 |
| SIRT1 (UniProt Q96EB6) | -0.368 | -0.379 | -0.922 |
| CAST (UniProt P20810) | 0.525 | 0.428 | 0.122 |
| CCDC53 (UniProt Q9Y3C0) | -0.425 | -1.22 | -0.495 |
| PPT1 (UniProt P50897) | -0.494 | -0.324 | -0.00594 |
| PIGG (UniProt Q5H8A4) | -0.479 | -0.752 | 0.14 |

| Target | thermal stability z-score [1, 3] | thermal stability z-score ([1]; arsenate co-treatment: none) | thermal stability z-score [2] |
| --- | --- | --- | --- |
| JUP (UniProt P14923) | 2.23 | 2.78 | 1.07 |
| MTDH (UniProt Q86UE4) | -0.531 | -0.503 | -1.35 |
| ENO1 (UniProt P06733) | 0.588 | 0.278 | -0.0281 |
| VARS (UniProt P26640) | 0.0159 | -0.0112 | 0.373 |
| THOC7 (UniProt Q6I9Y2) | 0.192 | 0.175 | -0.26 |
| MPST (UniProt P25325) | 0.689 | 0.913 | -0.099 |
| ZFYVE19 (UniProt Q96K21) | -0.473 | -0.599 | -3.34 |
| HCCS (UniProt P53701) | -0.0583 | -0.124 | -0.0765 |
| TAF2 (UniProt Q6P1X5) | -0.03 | -0.0592 | -0.179 |
| PRMT9 (UniProt Q6P2P2) | 0.25 | 0.0769 | 0.171 |
| FOXO1 (UniProt Q12778) | -0.211 | -0.123 | 0.182 |
| ATP6V0D1 (UniProt P61421) | -0.621 | -0.115 | -0.134 |
| FAHD1 (UniProt Q6P587) | 0.565 | 0.339 | 0.21 |
| POGLUT1 (UniProt Q8NBL1) | -3.26 | -3.23 | 1.16 |
| UQCRC2 (UniProt P22695) | 0.268 | -0.0661 | -2.47 |
| FAM173B (UniProt Q6P4H8) | -0.478 | 1.31 | -0.0461 |
| HSPBP1 (UniProt Q9NZL4) | -0.134 | -0.197 | 0.872 |
| STAM (UniProt Q92783) | -0.258 | 0.0211 | -0.0683 |
| RFK (UniProt Q969G6) | -0.697 | -0.27 | 0.313 |
| HEBP1 (UniProt Q9NRV9) | 0.436 | 0.615 | -0.000791 |
| NQO1 (UniProt P15559) | 0.825 | 0.331 | 0.174 |
| ACAT1 (UniProt P24752) | 0.399 | 1.07 | 0.878 |
| LRRC57 (UniProt Q8N9N7) | 0.252 | -0.185 | -0.186 |
| FARS2 (UniProt O95363) | -0.386 | -0.359 | -0.701 |

| Target | thermal stability z-score [1, 3] | thermal stability z-score ([1]; arsenate co-treatment: none) | thermal stability z-score [2] |
| --- | --- | --- | --- |
| UBA5 (UniProt Q9GZZ9) | -0.815 | -0.52 | 0.622 |
| PDHB (UniProt P11177) | 0.134 | 0.282 | -2.38 |
| HAUS6 (UniProt Q7Z4H7) | 0.0315 | 0.263 | 0.528 |
| AASDHPPT (UniProt Q9NRN7) | 0.269 | 0.269 | -0.589 |
| PER1 (UniProt O15534) | 0.107 | -0.119 | -0.023 |
| APBB2 (UniProt Q92870) | 0.078 | -0.11 | 0.0987 |
| ENDOG (UniProt Q14249) | -1.25 | -0.145 | -0.245 |
| SFXN4 (UniProt Q6P4A7) | -1.11 | -0.872 | 0.207 |
| MAEA (UniProt Q7L5Y9) | -0.402 | -0.993 | -0.343 |
| NDUFB6 (UniProt O95139) | 0.071 | 0.306 | 0.873 |
| USP5 (UniProt P45974) | 0.0243 | 0.351 | 0.0981 |
| C5ORF22 (UniProt Q49AR2) | -0.259 | 0.324 | 1.13 |
| TTC19 (UniProt Q6DKK2) | 0.927 | 0.897 | -1.29 |
| APAF1 (UniProt O14727) | -0.167 | -0.0627 | -0.00853 |
| MTFR1 (UniProt Q15390) | -0.301 | 0.52 | 0.165 |
| NUP133 (UniProt Q8WUM0) | -0.312 | -0.456 | -0.139 |
| PKMYT1 (UniProt Q99640) | -0.143 | -0.144 | -0.0435 |
| ITFG1 (UniProt Q8TB96) | -0.794 | -0.597 | 0.61 |
| RPL7A (UniProt P62424) | 0.455 | 0.197 | -0.955 |
| EBNA1BP2 (UniProt Q99848) | 0.29 | -0.281 | 0.463 |
| RDH10 (UniProt Q8IZV5) | 0.347 | 0.244 | 0.115 |
| CCNB1 (UniProt P14635) | 0.729 | 0.477 | 1.43 |
| SIRT2 (UniProt Q8IXJ6) | 0.594 | 0.653 | -0.31 |
